Experimental data from patent US11672841B2, “Methods for treating heart disease in a subject with Friedreich's ataxia by an aromatic-cationic peptide” (Stealth BioTherapeutics Inc., priority 2013, dated 2023).
Non-standard residues stand in square brackets, D forms with d. Residues, ends and D or L forms follow the SMILES beside them. No end group written: not given here. Dmt = Cc1cc(O)cc(C)c1C[C@H](N)C(=O)O

How the values were obtained:
[1] = test system: several mammalian cell types; settings: energy-independent manner (Zhao, et al., 2003); cited from earlier work
[2] = test system: fibroblasts from Friedreich's ataxia (FRDA) patients; settings: 1-10 μM peptide 24 hours, then 5 μm Fe/HQ for 5 hours
Experimental: Iron with hydroquinone (HQ) induces oxidative stress in cells because HQ forms a lipophilic chelate with iron and rapidly transfers the metal across the normally impermeable plasma membrane.
After 24 hours, the media is changed and the cells are treated with 5 μm Fe/HQ for 5 hours.

[3] = biological target: mu-opioid receptor (Homo sapiens, UniProt P35372); experiment: Mu-opioid receptor agonist activity; settings: stated without a test
mu-opioid receptor, sequence (P35372 whole entry, species assumed): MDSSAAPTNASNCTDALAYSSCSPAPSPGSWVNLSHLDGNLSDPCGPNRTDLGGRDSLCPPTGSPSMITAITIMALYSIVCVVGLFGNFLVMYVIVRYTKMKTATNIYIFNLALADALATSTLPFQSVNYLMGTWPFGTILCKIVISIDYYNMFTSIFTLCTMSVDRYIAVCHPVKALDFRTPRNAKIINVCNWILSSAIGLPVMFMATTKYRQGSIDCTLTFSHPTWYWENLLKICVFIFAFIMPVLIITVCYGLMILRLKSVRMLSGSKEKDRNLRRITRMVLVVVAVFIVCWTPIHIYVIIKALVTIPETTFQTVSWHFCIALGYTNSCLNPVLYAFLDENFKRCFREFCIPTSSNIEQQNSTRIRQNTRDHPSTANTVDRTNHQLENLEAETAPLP

Molecule | mu-opioid receptor agonist activity [3] | further results
2′,6′-Dmt-D-Arg-Phe-Lys-NH2 |  | penetration of the plasma membrane [1]: readily penetrates the plasma membrane
Cc1cc(O)cc(C)c1C[C@H](NC(=O)[C@H](N)CCCNC(=N)N)C(=O)N[C@@H](CCCCN)C(=O)N[C@@H](Cc1ccccc1)C(N)=O [D-Arg-2′,6′-Dmt-Lys-Phe-NH2] (H-[dR][Dmt]KF-NH2) |  | survival and cytotoxicity by morphologic appearance [2]: reduced evidence of cytotoxicity
F[dR]FK-NH2 | does not have mu-opioid receptor agonist activity | 
Tyr-D-Arg-Phe-Lys-NH2 | has mu-opioid receptor agonist activity | 
